Measurements from US9512120B2, “Microbicidally active imidazopyridine derivatives” (Syngenta Participations AG, priority 2013, dated 2016).

How the values were obtained:
[1] = test system: Blumeria graminis f. Sp. Tritici (Erysiphe graminis f. Sp. Tritici); experiment: Blumeria graminis f. sp. tritici / wheat / leaf disc preventative (powdery mildew on wheat); type: in vivo; settings: foliar, wheat leaf segments cv. Kanzler, inoculated 1 day after application, assessed 6-8 days after application, read-out: control of Blumeria graminis (percent disease control compared to untreated)
Method in brief: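 Wheat leaf segments (cv. Kanzler) on agar sprayed with formulated compound at 200 ppm, inoculated with powdery mildew 1 day later. Held at 20 °C, 60% RH, 24 h dark then 12 h/12 h light; percent disease control versus untreated scored 6-8 days after application.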

[2] = test system: Botryotinia fuckeliana (Botrytis cinerea); experiment: Botryotinia fuckeliana (Botrytis cinerea) / liquid culture (gray mould); type: cell-based; settings: Vogels broth, 24° C., 3-4 days after application, read-out: control of Botryotinia fuckeliana (inhibition of growth, photometric)
Method in brief: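 Botrytis cinerea conidia in Vogels broth were added to test compound applied from DMSO at 200 ppm. Incubation at 24 °C; growth inhibition read photometrically 3-4 days after application.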

[3] = test system: Mycosphaerella graminicola (Septoria tritici); experiment: Mycosphaerella graminicola (Septoria tritici) / liquid culture (Septoria blotch); type: cell-based; settings: Zymoseptoria tritici, PDB, 24° C., 4-5 days after application, read-out: control of Mycosphaerella graminicola (inhibition of growth, photometric)
Method in brief: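 Cryo-stored conidia in potato dextrose broth were added to compound in DMSO at 200 ppm in microtiter plates. Plates were incubated at 24 °C and growth inhibition was measured photometrically 4–5 days after application.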

[4] = test system: Phaeosphaeria nodorum (Septoria nodorum); experiment: Phaeosphaeria nodorum (Septoria nodorum) / wheat / leaf disc preventative (glume blotch); type: in vivo; settings: Parastagonospora nodorum, foliar, wheat leaf segments cv Kanzler, inoculated 2 days after application, assessed 5-7 days after application, read-out: control of Phaeosphaeria nodorum (percent disease control compared to untreated)
Method in brief: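 Wheat leaf segments (cv Kanzler) on agar sprayed with compound at 200 ppm, inoculated with spores 2 days later. Incubated at 20° C., 75% relative humidity, 12/12 h light/dark; percent disease control versus untreated scored 5-7 days after application.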

[5] = test system: Monographella nivalis (Microdochium nivale); experiment: Monographella nivalis (Microdochium nivale) / liquid culture (foot rot cereals); type: cell-based; settings: PDB, 24° C., 4-5 days after application, read-out: control of Monographella nivalis (inhibition of growth, photometric)
Method in brief: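 Cryostored conidia in potato dextrose broth were added to test compound dispensed from DMSO at 200 ppm. Plates were kept at 24° C, and growth inhibition was read photometrically 4-5 days after application.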

Gaeumannomyces graminis = Gaeumannomyces graminis / liquid culture (take-all of cereals); type: cell-based; settings: PDB, 24° C., 4-5 days after application, read-out: control of Gaeumannomyces graminis (inhibition of growth, photometric)
Method in brief: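 Mycelial fragments in potato dextrose broth were exposed to compound from DMSO at 200 ppm in microtiter plates. Incubation at 24 °C; growth inhibition read photometrically 4-5 days after application.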

[6] = test system: Thanatephorus cucumeris (Rhizoctonia solani); experiment: Thanatephorus cucumeris (Rhizoctonia solani) / liquid culture (foot rot, damping-off); type: cell-based; settings: PDB, 24° C., 3-4 days after application, read-out: control of Thanatephorus cucumeris (inhibition of growth, photometric)
Method in brief: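 Mycelial fragments in potato dextrose broth exposed to test compounds at 200 ppm (from DMSO solution), incubated at 24° C. Growth inhibition read photometrically 3-4 days after application.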

[7] = test system: Puccinia recondita f. sp. Tritici; experiment: Puccinia recondita f. sp. tritici / wheat / leaf disc preventative (brown rust); type: in vivo; settings: foliar, wheat leaf segments cv Kanzler, inoculated 1 day after application, assessed 7-9 days after application, read-out: control of Puccinia recondita f. sp. Tritici (percent disease control compared to untreated)
Method in brief: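 Leaf segments of wheat cv Kanzler on agar were sprayed with formulated compound at 200 ppm and inoculated with spores 1 day later. Incubation was at 19° C, 75% relative humidity and 12/12 h light/dark. Activity was scored 7-9 days after application as percent disease control versus untreated.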

CCCn1c(-n2ncnc2N)nc2cncc(C)c21 [Compound 173, 2-(7-methyl-1-propyl-imidazo[4,5-c]pyridin-2-yl)-1,2,4-triazol-3-amine]
≥ 80%: pest or weed control at 200 ppm [1] | inhibition at 20 ppm [2] | inhibition at 20 ppm [3] | pest or weed control at 200 ppm [4] | inhibition at 20 ppm [5] | inhibition at 20 ppm (Gaeumannomyces graminis) | inhibition at 20 ppm [6] | pest or weed control at 200 ppm [7]

CCn1c(-n2ncnc2N)nc2cncc(-c3cccc(Cl)c3F)c21 [Compound 90, 2-[7-(3-chloro-2-fluorophenyl)-1-ethylimidazo[4,5-c]pyridin-2-yl]-1,2,4-triazol-3-amine]
≥ 80%: pest or weed control at 200 ppm [1] | inhibition at 20 ppm [2] | inhibition at 20 ppm [3] | pest or weed control at 200 ppm [4] | inhibition at 20 ppm [5] | inhibition at 20 ppm (Gaeumannomyces graminis) | inhibition at 20 ppm [6] | pest or weed control at 200 ppm [7]

CCn1c(-n2ncnc2N)nc2cncc(-c3ccc(F)c(F)c3F)c21 [Compound 86, 2-[1-ethyl-7-(2,3,4-trifluorophenyl)imidazo[4,5-c]pyridin-2-yl]-1,2,4-triazol-3-amine]
≥ 80%: pest or weed control at 200 ppm [1] | inhibition at 20 ppm [2] | inhibition at 20 ppm [3] | pest or weed control at 200 ppm [4] | inhibition at 20 ppm [5] | inhibition at 20 ppm (Gaeumannomyces graminis) | inhibition at 20 ppm [6] | pest or weed control at 200 ppm [7]

CCCn1c(-n2ncnc2N)nc2cnccc21 [Compound 13, 2-(1-propylimidazo[4,5-c]pyridin-2-yl)-1,2,4-triazol-3-amine]
≥ 80%: pest or weed control at 200 ppm [1] | inhibition at 20 ppm [2] | inhibition at 20 ppm [3] | pest or weed control at 200 ppm [4] | inhibition at 20 ppm [5] | inhibition at 20 ppm (Gaeumannomyces graminis) | inhibition at 20 ppm [6] | pest or weed control at 200 ppm [7]

CCCn1c(-n2ncnc2N)nc2cncc(CC)c21 [Compound 174, 2-(7-ethyl-1-propyl-imidazo[4,5-c]pyridin-2-yl)-1,2,4-triazol-3-amine]
≥ 80%: pest or weed control at 200 ppm [1] | inhibition at 20 ppm [2] | inhibition at 20 ppm [3] | pest or weed control at 200 ppm [4] | inhibition at 20 ppm [5] | inhibition at 20 ppm (Gaeumannomyces graminis) | inhibition at 20 ppm [6] | pest or weed control at 200 ppm [7]

CCn1c(-n2ncnc2N)nc2cncc(/C(C)=N\OC/C=C(\C)Cl)c21 [Compound 153, 2-[7-[(Z)-N-[(E)-3-chlorobut-2-enoxy]-C-methyl-carbonimidoyl]-1-ethyl-imidazo[4,5-c]pyridin-2-yl]-1,2,4-triazol-3-amine]
≥ 80%: pest or weed control at 200 ppm [1] | inhibition at 20 ppm [2] | inhibition at 20 ppm [3] | pest or weed control at 200 ppm [4] | inhibition at 20 ppm [5] | inhibition at 20 ppm (Gaeumannomyces graminis) | inhibition at 20 ppm [6] | pest or weed control at 200 ppm [7]

CCn1c(-n2ncnc2N)nc2cncc(-c3cccc(OC)c3F)c21 [Compound 93, 2-[1-ethyl-7-(2-fluoro-3-methoxyphenyl)imidazo[4,5-c]pyridin-2-yl]-1,2,4-triazol-3-amine]
≥ 80%: pest or weed control at 200 ppm [1] | inhibition at 20 ppm [2] | inhibition at 20 ppm [3] | pest or weed control at 200 ppm [4] | inhibition at 20 ppm [5] | inhibition at 20 ppm (Gaeumannomyces graminis) | inhibition at 20 ppm [6] | pest or weed control at 200 ppm [7]

CCn1c(-n2ncnc2N)nc2cncc(-c3cccc(F)c3F)c21 [Compound 102, 2-[7-(2,3-difluorophenyl)-1-ethylimidazo[4,5-c]pyridin-2-yl]-1,2,4-triazol-3-amine]
≥ 80%: pest or weed control at 200 ppm [1] | inhibition at 20 ppm [2] | inhibition at 20 ppm [3] | pest or weed control at 200 ppm [4] | inhibition at 20 ppm [5] | inhibition at 20 ppm (Gaeumannomyces graminis) | inhibition at 20 ppm [6] | pest or weed control at 200 ppm [7]

CCn1c(-n2ncnc2N)nc2cncc(-c3cccnc3F)c21 [Compound 89, 2-[1-ethyl-7-(2-fluoropyridin-3-yl)imidazo[4,5-c]pyridin-2-yl]-1,2,4-triazol-3-amine]
≥ 80%: pest or weed control at 200 ppm [1] | inhibition at 20 ppm [2] | inhibition at 20 ppm [3] | pest or weed control at 200 ppm [4] | inhibition at 20 ppm [5] | inhibition at 20 ppm (Gaeumannomyces graminis) | inhibition at 20 ppm [6] | pest or weed control at 200 ppm [7]

CCn1c(-n2ncnc2N)nc2cncc(C(C)=O)c21 [Compound 75, 1-[2-(5-amino-1,2,4-triazol-1-yl)-1-ethylimidazo[4,5-c]pyridin-7-yl]ethanone]
≥ 80%: pest or weed control at 200 ppm [1] | inhibition at 20 ppm [2] | inhibition at 20 ppm [3] | pest or weed control at 200 ppm [4] | inhibition at 20 ppm [5] | inhibition at 20 ppm (Gaeumannomyces graminis) | inhibition at 20 ppm [6] | pest or weed control at 200 ppm [7]

CCc1cncc2nc(-n3ncnc3N)n(CC)c12 [Compound 23, 2-(1,7-diethylimidazo[4,5-c]pyridin-2-yl)-1,2,4-triazol-3-amine]
≥ 80%: pest or weed control at 200 ppm [1] | inhibition at 20 ppm [2] | inhibition at 20 ppm [3] | pest or weed control at 200 ppm [4] | inhibition at 20 ppm [5] | inhibition at 20 ppm (Gaeumannomyces graminis) | inhibition at 20 ppm [6] | pest or weed control at 200 ppm [7]

CC=Cc1cncc2nc(-n3ncnc3N)n(CC)c12 [Compound 67, 2-(1-ethyl-7-prop-1-enylimidazo[4,5-c]pyridin-2-yl)-1,2,4-triazol-3-amine]
≥ 80%: pest or weed control at 200 ppm [1] | inhibition at 20 ppm [2] | inhibition at 20 ppm [3] | pest or weed control at 200 ppm [4] | inhibition at 20 ppm [5] | inhibition at 20 ppm (Gaeumannomyces graminis) | inhibition at 20 ppm [6] | pest or weed control at 200 ppm [7]
